Target: T1, HPK1 (Homo sapiens, UniProt Q92918)
T1 construct: A HiBiT tag was introduced by CRISPR on the N terminus of HPK1 in Jurkat cells; host or cells: Jurkat cells (ATCC TIB-152), monoclonal line with CRISPR knock-in of HiBiT at the endogenous HPK1 locus
Assay: HPK1 Cellular HiBit Degradation Assay
Assay type: cell-based
Conditions: HiBiT HPK1 Jurkat cells, 24 hrs; for DC50: concentration at which 50% of HPK1 was remaining, read-out: DC50 Category; for Dmax: Jurkat, maximum degradation vs DMSO vehicle control, read-out: Dmax Category
How it was run: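 Jurkat cells with CRISPR knock-in N-terminal HiBiT-HPK1 were treated with CTMs (11-point, 3.16-fold, 10 uM to 0.1 nM final) for 24 hrs at 37° C. HiBiT lytic luminescence, with parental Jurkat as background and DMSO as 100%, gave % HPK1 remaining; four-parameter fit yielded DC50 and Dmax (100 minus lowest % remaining).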

T1 sequence (Q92918 whole entry): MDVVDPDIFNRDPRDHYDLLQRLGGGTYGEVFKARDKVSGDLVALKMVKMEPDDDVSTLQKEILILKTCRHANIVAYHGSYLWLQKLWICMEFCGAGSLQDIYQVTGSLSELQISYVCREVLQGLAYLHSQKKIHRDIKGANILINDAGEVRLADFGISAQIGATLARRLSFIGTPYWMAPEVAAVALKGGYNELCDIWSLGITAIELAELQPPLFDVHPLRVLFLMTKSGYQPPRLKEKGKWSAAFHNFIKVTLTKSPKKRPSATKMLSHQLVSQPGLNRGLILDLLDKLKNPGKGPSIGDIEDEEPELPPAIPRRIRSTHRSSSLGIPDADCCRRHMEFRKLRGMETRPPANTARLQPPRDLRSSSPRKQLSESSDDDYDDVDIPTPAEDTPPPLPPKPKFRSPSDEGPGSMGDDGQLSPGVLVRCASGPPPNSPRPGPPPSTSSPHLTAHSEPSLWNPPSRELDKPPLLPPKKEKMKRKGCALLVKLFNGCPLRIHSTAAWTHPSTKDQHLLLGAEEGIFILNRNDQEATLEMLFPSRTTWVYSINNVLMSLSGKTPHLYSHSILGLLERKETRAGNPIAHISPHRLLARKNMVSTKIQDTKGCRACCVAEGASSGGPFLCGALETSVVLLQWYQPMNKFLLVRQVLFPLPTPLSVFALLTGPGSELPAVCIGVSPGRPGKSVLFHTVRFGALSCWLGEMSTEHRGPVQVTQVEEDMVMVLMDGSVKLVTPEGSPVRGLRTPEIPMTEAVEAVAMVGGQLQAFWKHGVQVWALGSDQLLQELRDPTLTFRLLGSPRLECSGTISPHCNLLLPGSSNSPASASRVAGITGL

Row | Structure (SMILES) | DC50 [nM] | Dmax [%]
1 | CC(C)n1cnc2cc(-c3ccc4c(c3)N([C@H]3C[C@@H](N5CCCCC5)C3)C(=O)C43CCN(C(=O)C4CCCN(C(=O)C5CCN(c6ccc(C7CCC(=O)NC7=O)cn6)CC5)C4)CC3)nc(NC3CC3)c21 (mixture of isomers) [Example 272, (3RS)-3-(6-{4-[3-({6-[4-(cyclopropylamino)-3-(propan-2-yl)-3H-imidazo[4,5-c]pyridin-6-yl]-2-oxo-1-[(1S,3S)-3-(piperidin-1-yl)cyclobutyl]-1,2-dihydrospiro[indole-3,4′-piperidin]-1′-yl}carbonyl)piperidine-1-carbonyl]piperidin-1-yl}pyridin-3-yl)piperidine-2,6-dione] | < 100 | 70 to 85
2 | CC(C)n1cnc2cc(-c3ccc4c(c3)N([C@H]3C[C@@H](N5CCCCC5)C3)C(=O)C43CCN(C(=O)[C@@H]4C[C@H]5CC[C@@H](C4)N5C(=O)C4CCN(c5ccc(C6CCC(=O)NC6=O)cc5)CC4)CC3)nc(NC3CC3)c21 (mixture of isomers) [Example 262, (3RS)-3-(4-{4-[(1R,3R,5S)-3-({6-[4-(cyclopropylamino)-3-(propan-2-yl)-3H-imidazo[4,5-c]pyridin-6-yl]-2-oxo-1-[(1S,3S)-3-(piperidin-1-yl)cyclobutyl]-1,2-dihydrospiro[indole-3,4′-piperidin]-1′-yl}carbonyl)-8-azabicyclo[3.2.1]Octane-8-carbonyl]piperidin-1-yl}phenyl)piperidine-2,6-dione] | < 100 | 70 to 85
3 | CC(C)n1cnc2cc(-c3ccc4c(c3)N([C@H]3C[C@@H](N5CCCCC5)C3)C(=O)C43CCN(C(=O)C4CCN(C(=O)C5CCN(c6ccc(C7CCC(=O)NC7=O)c(F)c6)CC5)CC4)CC3)nc(NC3CC3)c21 (mixture of isomers) [Example 237, (3RS)-3-(4-{4-[4-({6-[4-(cyclopropylamino)-3-(propan-2-yl)-3H-imidazo[4,5-c]pyridin-6-yl]-2-oxo-1-[(1S,3S)-3-(piperidin-1-yl)cyclobutyl]-1,2-dihydrospiro[indole-3,4′-piperidin]-1′-yl}carbonyl)piperidine-1-carbonyl]piperidin-1-yl}-2-fluorophenyl)piperidine-2,6-dione] | < 100 | 70 to 85
4 | CC(C)n1cnc2cc(-c3ccc4c(c3)N([C@H]3C[C@@H](N5CCCCC5)C3)C(=O)C43CCN(C(=O)c4ccc(C(=O)N(C)C5CCN(c6ccc(C7CCC(=O)NC7=O)cn6)CC5)cc4)CC3)nc(Nc3ccccc3F)c21 (mixture of isomers) [Example 141, N-(1-{5-[(3RS)-2,6-dioxopiperidin-3-yl]pyridin-2-yl}piperidin-4-yl)-4-[(6-{4-[(2-Fluorophenyl)amino]-3-(propan-2-yl)-3H-imidazo[4,5-c]pyridin-6-yl}-2-oxo-1-[(1S,3S)-3-(piperidin-1-yl)cyclobutyl]-1,2-dihydrospiro[indole-3,4′-piperidin]-1′-yl)carbonyl]-N-methylbenzamide] | 500 to 1000 | 50 to 70
5 | CC(C)n1cnc2cc(-c3ccc4c(c3)N([C@H]3C[C@@H](N5C6CCC5COC6)C3)C(=O)C43CCN(C(=O)C4(C)CCN(C(=O)CC5CCN(c6ccc(C7CCC(=O)NC7=O)cc6)CC5)CC4)CC3)nc(NC3CC3)c21 (mixture of isomers) [Example 202, (3RS)-3-[4-(4-{2-[4-({6-[4-(cyclopropylamino)-3-(propan-2-yl)-3H-imidazo[4,5-c]pyridin-6-yl]-2-oxo-1-[(1S,3S)-3-{3-oxa-8-azabicyclo[3.2.1]octan-8-yl}cyclobutyl]-1,2-dihydrospiro[indole-3,4′-piperidin]-1′-yl}carbonyl)-4-methylpiperidin-1-yl]-2-oxoethyl}piperidin-1-yl)phenyl]piperidine-2,6-dione] | 500 to 1000 | 50 to 70
6 | CC(C)Oc1nc(-c2ccc3c(c2)N([C@H]2C[C@@H](N4CCCCC4)C2)C(=O)C32CCN(C(=O)C3(C)CCN(C(=O)C4CCN(c5ccc(C6CCC(=O)NC6=O)cn5)CC4)CC3)CC2)cc2ncn(C(C)C)c12 (stereo partly drawn) [Example 169, 3-(6-{4-[4-methyl-4-({2-oxo-6-[3-(propan-2-yl)-4-(propan-2-yloxy)-3H-imidazo[4,5-c]pyridin-6-yl]-1-[(1S,3S)-3-(piperidin-1-yl)cyclobutyl]-1,2-dihydrospiro[indole-3,4′-piperidin]-1′-yl}carbonyl)piperidine-1-carbonyl]piperidin-1-yl}pyridin-3-yl)piperidine-2,6-dione] | < 100 | > 85
7 | CC(C)n1cnc2cc(-c3ccc4c(c3)N([C@H]3C[C@@H](N5CCCCC5)C3)C(=O)C43CCN(C(=O)[C@@H]4CCN(C(=O)[C@H]5CC[C@H](Oc6ccc(C7CCC(=O)NC7=O)cn6)CC5)C4)CC3)nc(Nc3ccccc3F)c21 (mixture of isomers) [Example 17, (3RS)-3-(6-{1[(1R,4R)-4-[(3R)-3-[(6-{4-[(2-fluorophenyl)amino]-3-(propan-2-yl)-3H-imidazo[4,5-c]pyridin-6-yl}-2-oxo-1-[(1S,3S)-3-(piperidin-1-yl)cyclobutyl]-1,2-dihydrospiro[indole-3,4′-piperidin]-1′-yl)carbonyl]pyrrolidine-1-carbonyl]cyclohexyl]oxy}pyridin-3-yl)piperidine-2,6-dione] | < 100 | > 85
8 | CC(C)n1cnc2cc(-c3ccc4c(c3)N([C@H]3C[C@@H](N5CCCCC5)C3)C(=O)C43CCN(C(=O)[C@H]4CC[C@@H](C(=O)N5CCC(Nc6ccc(C7CCC(=O)NC7=O)cn6)CC5)CC4)CC3)nc(Nc3ccccc3F)c21 (mixture of isomers) [Example 30, (3RS)-3-[6-({1-[(1S,4S)-4-[(6-{4-[(2-fluorophenyl)amino]-3-(propan-2-yl)-3H-imidazo[4,5-c]pyridin-6-yl}-2-oxo-1-[(1S,3S)-3-(piperidin-1-yl)cyclobutyl]-1,2-dihydrospiro[indole-3,4′-piperidin]-1′-yl)carbonyl]cyclohexanecarbonyl]piperidin-4-yl}amino)pyridin-3-yl]piperidine-2,6-dione] | < 100 | 70 to 85
9 | CC(C)n1cnc2cc(-c3ccc4c(c3)N([C@H]3C[C@@H](N5CCCCC5)C3)C(=O)C43CCN(C(=O)[C@H]4CC[C@@H](C(=O)N5CCN(c6ccc7c(c6)C(=O)N(C6CCC(=O)NC6=O)C7=O)CC5)CC4)CC3)nc(Nc3ccccc3F)c21 (mixture of isomers) [Example 31, 2-[(3RS)-2,6-dioxopiperidin-3-yl]-5-{4-[(1S,4s)-4-[(6-{4-[(2-fluorophenyl)amino]-3-(propan-2-yl)-3H-imidazo[4,5-c]pyridin-6-yl}-2-oxo-1-[(1S,3S)-3-(piperidin-1-yl)cyclobutyl]-1,2-dihydrospiro[indole-3,4′-piperidin]-1′-yl)carbonyl]cyclohexanecarbonyl]piperazin-1-yl}-2,3-dihydro-1H-isoindole-1,3-dione] | 100 to 500 | 70 to 85
10 | CC1CN(C(=O)C2CCN(c3ccc(C4CCC(=O)NC4=O)cn3)CC2)CCC1C(=O)N1CCC2(CC1)C(=O)N([C@H]1C[C@@H](N3CCCCC3)C1)c1cc(-c3cc4ncn(C(C)C)c4c(NC4CC4)n3)ccc12 (mixture of isomers) [Example 253, (3RS)-3-(6-{4-[4-({6-[4-(cyclopropylamino)-3-(propan-2-yl)-3H-imidazo[4,5-c]pyridin-6-yl]-2-oxo-1-[(1S,3S)-3-(piperidin-1-yl)cyclobutyl]-1,2-dihydrospiro[indole-3,4′-piperidin]-1′-yl}carbonyl)-3-methylpiperidine-1-carbonyl]piperidin-1-yl}pyridin-3-yl)piperidine-2,6-dione] | < 100 | 70 to 85
11 | CC(C)n1cnc2cc(-c3ccc4c(c3)N([C@H]3C[C@@H](N5CCCCC5)C3)C(=O)C43CCN(C(=O)C4(F)CCN(C(=O)C5CCN(c6ccc(C7CCC(=O)NC7=O)cn6)CC5)CC4)CC3)nc(NC3CC3)c21 (mixture of isomers) [Example 277, (3RS)-3-(6-{4-[4-({6-[4-(cyclopropylamino)-3-(propan-2-yl)-3H-imidazo[4,5-c]pyridin-6-yl]-2-oxo-1-[(1S,3S)-3-(piperidin-1-yl)cyclobutyl]-1,2-dihydrospiro[indole-3,4′-piperidin]-1′-yl}carbonyl)-4-fluoropiperidine-1-carbonyl]piperidin-1-yl}pyridin-3-yl)piperidine-2,6-dione] | < 100 | 70 to 85
12 | CC(C)n1cnc2cc(-c3ccc4c(c3)N([C@H]3C[C@@H](N5CCCCC5)C3)C(=O)C43CCN(CC(=O)N(C)C4CCN(C(=O)C5CCN(c6cc(C7CCC(=O)NC7=O)ccn6)CC5)CC4)CC3)nc(NC3CC3)c21 (stereo partly drawn) [Example 201, 2-{6-[4-(cyclopropylamino)-3-(propan-2-yl)-3H-imidazo[4,5-c]pyridin-6-yl]-2-oxo-1-[(1S,3S)-3-(piperidin-1-yl)cyclobutyl]-1,2-dihydrospiro[indole-3,4′-piperidin]-1′-yl}-N-(1-{1-[4-(2,6-dioxopiperidin-3-yl)pyridin-2-yl]piperidine-4-carbonyl}piperidin-4-yl)-N-methylacetamide] | 100 to 500 | 50 to 70
13 | CC(C)n1cnc2cc(-c3ccc4c(c3)N([C@H]3C[C@@H](N5CCCCC5)C3)C(=O)C43CCN(C(=O)C4CCN(C(=O)C5CCN(c6ccc(C7CCC(=O)NC7=O)cn6)CC5)CC4)CC3)nc(NC3CCOCC3)c21 (mixture of isomers) [Example 78, (3RS)-3-[6-(4-{4-[(6-{4-[(oxan-4-yl)amino]-3-(propan-2-yl)-3H-imidazo[4,5-c]pyridin-6-yl}-2-oxo-1-[(1S,3S)-3-(piperidin-1-yl)cyclobutyl]-1,2-dihydrospiro[indole-3,4′-piperidin]-1′-yl)carbonyl]piperidine-1-carbonyl}piperidin-1-yl)pyridin-3-yl]piperidine-2,6-dione] | < 100 | 50 to 70

Reference: US12091426B2, “Bifunctional degraders of hematopoietic progenitor kinase and therapeutic uses thereof” (Nurix Therapeutics, Inc., priority 2021, dated 2024)
